Series [1] concerns corneal neuropathic pain. The series can be described thus: Treatment of corneal pain with drug solution in the fluid reservoir of a scleral lens (BOS-P). The class given is in vivo, human. How it is done: (§1) A patient with well-established primary Sjögren's syndrome and severe dry eyes was treated for intense, constant corneal pain using the anesthetic delivery system disclosed herein. Specifically, the patient was treated with bupivacaine and BOS-P devices. The concentration of non-preserved bupivacaine was rapidly titrated using frequent (every 2-5 minutes) drops in the more symptomatic left eye (open label) measuring corneal sensitivity with a Cochet-Bonnet aesthesiometer (with adequate recovery times) until reaching the concentration that avoided any depression of corneal sensitivity. The sub-anesthetic concentration in this patient was determined to be 0.001%. Both BOS-P devices were filled with 0.001% bupivacaine and inserted into the patient's eyes. The patient then left.
The patient was given a vial of 0.01% bupivacaine to dilute 1:10 (e.g., add one drop of 0.01% bupivacaine to nine drops of saline) to fill the reservoir of the left lens prior to inserting it the next morning.
(§2) They wore the BOS-P containing 0.001% bupivacaine in their left eye, and the BOS-P containing saline in their right eye unmasked to the patient and doctor, for about 8 hours. […] Corneal sensation in the treated eye was normal.
The fluid compartments of both BOS-P lenses were filled with non-preserved bupivacaine at a concentration of 0.002%, and the BOS-P lenses with bupivacaine were worn at least 12 hours/day. […] Eye symptoms were also resolved after the bupivacaine was diluted to 0.0014%.
A patient suffered from Stevens-Johnson syndrome for about 25 years, complicated by scarring of the lids and corneas of both eyes. The patient was fitted with scleral lens with marked mitigation of eye pain for 2 years following which the patient experienced increasingly disabling eye pain and photosensitivity that was refractory to all available treatments and required high daily doses of opioids to control. Three drops of ropivacaine 0.04% were mixed with 5 drops of saline in the reservoirs of both of the patient's scleral lenses, yielding a solution of 0.015% ropivacaine.
The patient returned the following day 2 hours after inserting the scleral lenses containing 0.015% ropivacaine. […]
A patient underwent a bone marrow stem cell transplant for leukemia and subsequently developed severe dry eyes secondary to chronic graft versus host disease. They were fitted with a scleral lens that eliminated the severe burning pain in their right eye but continued to experienced knife-like and severe aching pain in their left eye and disabling photosensitivity while wearing the scleral lens. This persisted for 15 months. All eye and co-morbid pain symptoms disappeared when the lens was worn with its fluid reservoir filled with sterile, non-preserved lacosamide 0.05%.

For series [2], the system named is corneas. The series can be described thus: Ocular safety examination (fluorescein staining, slit lamp, confocal microscopy). Type of series: in vivo, human. How it is done: as §2
The patient returned the following day 2 hours after inserting the scleral lenses containing 0.015% ropivacaine.
A patient suffered from severe corneal neuropathic pain for many years, greatly limiting the patient's quality of life. This disease was refractory to previous treatments. Lacosamide was placed in the fluid reservoir of the device where it remained in contact with the cornea while it was worn (approximately 10 hours/day).

The test system of series [3] is corneal sensitivity. The series can be described thus: Corneal sensitivity by Cochet-Bonnet aesthesiometry. The class given is in vivo, human.
From the text: The sub-hypoesthetic dose for a sodium channel blocker or a sodium channel modulator may vary between patients. […] The sub-hypoesthetic dose of a sodium channel blocker or a sodium channel modulator can be determined for an individual patient by selecting a higher starting concentration and gradually reducing the concentration via titration until reaching a sub-hypoesthetic dose as determined by a contact and non-contact esthesiometer. A non-limiting example of a method of determining corneal sensitivity is Cochet-Bonnet aesthesiometry.
As used herein, the phrases “sub-anesthetic dose” and “sub-anesthetic concentration” refer to a dose of a sodium channel blocker or a sodium channel modulator or a sodium channel modulator that is lower than the anesthetic dose. “Sub-anesthetic dose” and “sub-anesthetic concentration” may be used interchangeably. The sub-anesthetic dose of a sodium channel blocker or a sodium channel modulator may vary between patients. The sub-anesthetic dose of a sodium channel blocker or a sodium channel modulator can be determined for an individual patient by selecting a higher starting concentration and gradually reducing the concentration via titration until reaching a sub-anesthetic dose as determined by a contact and non-contact esthesiometer. A non-limiting example of a starting concentration of a sodium channel blocker or a sodium channel modulator is about 0.02%. In some embodiments, the concentration of the sodium channel blocker or a sodium channel modulator may be titrated down to a concentration that avoids any depression of corneal sensitivity. A non-limiting example of a method of determining corneal sensitivity is Cochet-Bonnet aesthesiometry.
as §1, with “Both BOS-P devices were filled with 0.001% bupivacaine and inserted into the patient's eyes.” left out

The subject of series [4] is cornea. The note with it: proparacaine 0.05%, after photorefractive keratectomy, Shahinian et al.; cited from earlier work.
The subject of series [5] is corneal neuropathic pain. Nature of the series: Lacosamide eye drops without scleral lens for corneal neuropathic pain. Type of series: in vivo, human. The note with it: Example 5, eye drops with 0.5% lacosamide. How it is done:
Eye drops containing 0.5% lacosamide were administered to the eyes of two patients and to the an eye of the inventor. […] Therefore, it is believed that lacosamide may be used in eye drops at a concentration of up to 5% to treat corneal neuropathic pain without depressing corneal sensation.

Setting [6] is: Example 3, ropivacaine in scleral lenses, continued use.

Consider `CCCCN1CCCCC1C(=O)Nc1c(C)cccc1C` (stereo not shown) [bupivacaine], for which the “eye comfort reported by patient” value in series [1] (Example 1, both BOS-P filled with 0.001% bupivacaine, next day) is recorded as “both eyes felt more comfortable than they had been in 3 months”. In series [1] (Example 1, second day, left lens reservoir filled with non-preserved bupivacaine), the “pain reported at day's end” value is reported as “virtual absence of pain in either eye”. For the same compound, the “pain after exposure to glass cleaner or white board marker” value in series [1] (Example 1, second day, triggers that ordinarily cause severe pain) is “little or no pain”. For the same compound, in series [1] (Example 1, third day, BOS-P with 0.001% bupivacaine in left eye, saline in right eye), the “pain reported after about 8 hours of wear” value is given as “virtually no pain in either eye”. Also, the “pain with the Visual Analog Scale” value in series [1] (Example 1, third day, on arrival) was “virtually no pain in either eye”. Moreover, the eye symptoms entry in series [1] (Example 2, bupivacaine diluted to 0.0014%) is on record as “resolved”. In addition, the “eye symptoms (photosensitivity, burning pain, inability to read)” value in series [1] (Example 2, post cosmetic lid surgery, 0.002% bupivacaine in both BOS-P, at least 12 hours/day, several weeks) is “resolved”. Moreover, the fluorescein staining result in series [2] (in vivo) is reported as “no significant fluorescein staining”. Further, in series [3] (Example 1, 0.001% bupivacaine in left lens, verified periodically during the day), the “corneal sensitivity during wear” value was “absence of depressed corneal sensitivity”. For the same compound, the “corneal sensation in the treated eye” value in series [3] (Example 1, after about 8 hours of BOS-P with 0.001% bupivacaine) was “normal”. Besides, the corneal sensation result in series [3] (Example 2, 0.002% bupivacaine in BOS-P, several weeks) was “remained intact”.
With `CCCOc1ccc(C(=O)OCCN(CC)CC)cc1N` [Proparacaine], in series [4], the anesthetic effect entry was “non-anesthetic”; the toxicity and safety entry is “non-toxic, and safe for at least one week of use”.
Take `CCCN1CCCC[C@H]1C(=O)Nc1c(C)cccc1C` [ropivacaine]: the “eye pain and photophobia, lenses worn until midnight” value in series [1] (Example 3, 0.015% ropivacaine, first day) is recorded as “total resolution”. In addition, the “eye pain and photosensitivity following application” value in series [1] (Example 3, Stevens-Johnson syndrome, 0.015% ropivacaine in both scleral lenses) is listed as “rapid mitigation”. In addition, in series [1] (Example 3, following day, 2 hours after inserting lenses with 0.015% ropivacaine), the “symptoms at the time of examination” value is on record as “free of symptoms”. Further, in series [1] (setting [6]), the “eye pain and photophobia at subsequent examinations” value is given as “significant mitigation”. Besides, in series [2] (in vivo), the “adverse effects from the treatment” value is “no adverse effects” and the “treatment-related complications at subsequent examinations” value is listed as “without adverse treatment-related complications”. The corneal sensitivity entry in series [3] (Example 3, 0.015% ropivacaine, following day) is “normal”. The “corneal sensitivities at subsequent examinations” value in series [3] (setting [6]) was “normal”.
For `COC[C@@H](NC(C)=O)C(=O)NCc1ccccc1` [lacosamide], the “eye and co-morbid pain symptoms” value in series [1] (Example 6, chronic graft versus host disease dry eye, scleral lens reservoir filled with lacosamide 0.05%) is “disappeared”. In addition, the “detrimental effects to the corneas” value in series [2] (Example 4, 0.003% lacosamide in BOS-P, slit lamp examination and confocal microscopy) is recorded as “without any detrimental effects”. In series [5], the “duration of effect, one patient” value is recorded as “over four”; the “duration of effect, other patient” value was “over two”; the “onset of pain resolution” value is “almost immediately after administration”. The corneal neuropathic pain result in series [5] (both patients) is listed as “complete resolution”. Further, in series [3] (Example 5, eye drops with 0.5% lacosamide, two patients and the inventor), the corneal sensation entry is reported as “did not depress corneal sensation”.
